Reference: US20040132707A1, “Catecholate beta-lactam conjugates, method for producing the same and the use thereof” (Gruenenthal GmbH, priority 2001, published 2004)
≈ marks a conversion by molar mass, not a printed value.

How the values were obtained:
Experiment in all cases: Microdilution MIC assay (NCCLS M7-A)
Format in all cases: cell-based
[1] = tested on: Klebsiella pneumoniae ATCC 10031; conditions: strain ATCC10031
Experimental: (§1) The antibacterial activity was tested by a microdilution assay according to National Committee for Clinical Laboratory Standards, 1998, Methods for dilution antimicrobial susceptibility tests for bacteria that grow aerobically, Approved standard M7-A, NCCLS, Villanova, Pa.
(§2) The minimal inhibition concentrations (MICs) were determined for the following bacterial strains: The Gram-negative strains Pseudomonas aeruginosa SG 137, ATCC 27853, Escherichia coli ATCC 25922, Klebsiella pneumoniae ATCC 10031, Stenotrophomonas maltophilia GN 12873, Serratia marcescens SG 621 as well as for the Gram-positive strain Staphylococcus aureus SG 511.

[2] = tested on: Escherichia coli ATCC 25922; conditions: strain ATCC 25922
Experimental: as §1, §2

[3] = tested on: Staphylococcus aureus SG 511; conditions: strain SG511
Experimental: as §1, §2

[4] = tested on: Stenotrophomonas maltophilia GN 12873; conditions: strain GN12873
Experimental: as §1, §2

[5] = tested on: Pseudomonas aeruginosa SG 137; conditions: strain SG137
Experimental: as §1, §2

[6] = tested on: Pseudomonas aeruginosa ATCC 27853; conditions: strain ATCC 27853
Experimental: as §1, §2

[7] = tested on: Serratia marcescens SG 621; conditions: strain SG621
Experimental: as §1, §2

Row | Structure (SMILES) | MIC Klebsiella pneumoniae ATCC10031 [1] [µg/mL] | MIC E. coli ATCC 25922 [2] [µg/mL] | MIC Staph. aureus SG511 [3] [µg/mL] | MIC Stenotroph. maltoph. GN12873 [4] [µg/mL] | MIC Pseudomonas aeruginosa SG137 [5] [µg/mL] | MIC Pseudomonas aeruginosa ATCC 27853 [6] [µg/mL] | MIC Serratia marc. SG621 [7] [µg/mL]
1 | COC(=O)Oc1cccc(C(=O)N(C)CCCN(CC(=O)NC(C(=O)NC2C(=O)N3C2SC(C)(C)C3C(=O)O)c2ccccc2)C(=O)c2cccc(OC(=O)OC)c2OC(=O)OC)c1OC(=O)OC (stereo not shown) [Example 1, N-[3,7-Bis-(2,3-dimethoxycarbonyloxybenzoyl)-3,7-diaza-octanoyl]-ampicillin] | 0.008 (≈ 0.00815 µM) | 0.062 (≈ 0.0631 µM) | 10 (≈ 10.2 µM) | 0.062 (≈ 0.0631 µM) | 0.031 (≈ 0.0316 µM) | 0.031 (≈ 0.0316 µM) | 0.078 (≈ 0.0794 µM)
2 | CC(=O)Oc1cccc(C(=O)NCCCCCCN(CCCCCCN(CC(=O)NC(C(=O)NC2C(=O)N3C2SC(C)(C)C3C(=O)O)c2ccccc2)C(=O)c2cccc(OC(C)=O)c2OC(C)=O)C(=O)c2cccc(OC(C)=O)c2OC(C)=O)c1OC(C)=O (stereo not shown) [Example 2, N-[3,10,17-Tris-(2,3-diacetoxybenzoyl)-3,10,17-triaza-heptadecanoyl]-ampicillin] | 0.4 (≈ 0.316 µM) | 0.4 (≈ 0.316 µM) | 6.25 (≈ 4.94 µM) |  | <0.05 | 3.125 (≈ 2.47 µM) | 
3 | COC(=O)Oc1cccc(C(=O)N(CCN(CCn2c(=O)oc3c(OC(=O)OC)cccc3c2=O)CCn2c(=O)oc3c(OC(=O)OC)cccc3c2=O)CC(=O)NC(C(=O)NC2C(=O)N3C2SC(C)(C)C3C(=O)O)c2ccccc2)c1OC(=O)OC (stereo not shown) [Example 3, N-[6-Bis[2-(8-methoxycarbonyloxy-benzoxazin-2,4-dion-3-yl)-ethyl]-3-[2,3-di-(methoxycarbonyloxy)-benzoyl]-3,6-diaza-hexanoyl]-ampicillin] | <0.05 | 0.2 (≈ 0.163 µM) | 12.5 (≈ 10.2 µM) | 0.4 (≈ 0.326 µM) | 0.1 (≈ 0.0814 µM) | 0.78 (≈ 0.635 µM) | 0.2 (≈ 0.163 µM)
4 | CC(=O)Oc1cccc(C(=O)NCCCCCCN(CCCCCCN(CC(=O)NC(C(=O)NC2C(=O)N3C(C(=O)O)=C(Cl)CSC23)c2ccccc2)C(=O)c2cccc(OC(C)=O)c2OC(C)=O)C(=O)c2cccc(OC(C)=O)c2OC(C)=O)c1OC(C)=O (stereo not shown) [Example 4, N-[3,10,17-Tris-(2,3-diacetoxybenzoyl)-3,10,17-triaza-heptadecanoyl]-cefaclor] | <0.05 | 0.2 (≈ 0.156 µM) | 6.25 (≈ 4.87 µM) | 50 (≈ 38.9 µM) | 0.2 (≈ 0.156 µM) | 1.56 (≈ 1.22 µM) | 
5 | CCOC(=O)OC(C)OC(=O)[C@@H]1N2C(=O)[C@@H](NC(=O)[C@H](NC(=O)CN(CCCCCCN(CCCCCCNC(=O)c3cccc(OC(C)=O)c3OC(C)=O)C(=O)c3cccc(OC(C)=O)c3OC(C)=O)C(=O)c3cccc(OC(C)=O)c3OC(C)=O)c3ccccc3)[C@H]2SC1(C)C (stereo partly shown) [Example 5, N-[3,10,17-Tris-(2,3-diacetoxybenzoyl)-3,10,17-triaza-heptadecanoyl]-bacampicillin] | 0.2 (≈ 0.145 µM) | 100 (≈ 72.4 µM) |  | 50 (≈ 36.2 µM) | 25 (≈ 18.1 µM) | 25 (≈ 18.1 µM) | 0.4 (≈ 0.29 µM)
6 | CC(=O)Oc1cccc(C(=O)NCCCN(CCCN(CC(=O)NC(C(=O)NC2C(=O)N3C2SC(C)(C)C3C(=O)O)c2ccccc2)C(=O)c2cccc(OC(C)=O)c2OC(C)=O)C(=O)c2cccc(OC(C)=O)c2OC(C)=O)c1OC(C)=O (stereo not shown) [Example 6, N-[3,7,11-Tris-(2,3-diacetoxybenzoyl)-3,7,11-triaza-undecanoyl]-ampicillin] | 0.1 (≈ 0.0847 µM) | 1.56 (≈ 1.32 µM) | 6.25 (≈ 5.29 µM) | 0.4 (≈ 0.339 µM) | 0.2 (≈ 0.169 µM) | 1.56 (≈ 1.32 µM) | 0.78 (≈ 0.66 µM)
7 | COC(=O)Oc1cc(Cl)cc(C(=O)N(C)CCCN(CC(=O)NC(C(=O)NC2C(=O)N3C2SC(C)(C)C3C(=O)O)c2ccccc2)C(=O)c2cc(Cl)cc(OC(=O)OC)c2OC(=O)OC)c1OC(=O)OC (stereo not shown) [Example 7, N-[3,7-Bis-(5-chlor-2,3-dimethoxycarbonyloxybenzoyl)-3,7-diaza-octanoyl]-ampicillin] | <0.005 | 0.05 (≈ 0.0476 µM) | 12.5 (≈ 11.9 µM) | 0.02 (≈ 0.019 µM) | <0.005 | 0.1 (≈ 0.0952 µM) | 0.02 (≈ 0.019 µM)
8 | COC(=O)Oc1cc(Br)cc(C(=O)N(C)CCCN(CC(=O)NC(C(=O)NC2C(=O)N3C2SC(C)(C)C3C(=O)O)c2ccccc2)C(=O)c2cc(Br)cc(OC(=O)OC)c2OC(=O)OC)c1OC(=O)OC (stereo not shown) [Example 8, N-{3,7-Bis-[5-brom-2,3-di-(methoxycarbonyloxy)-benzoyl]-3,7-diaza-octanoyl}-ampicillin] | <0.005 | <0.005 | 6.25 (≈ 5.48 µM) | 0.02 (≈ 0.0175 µM) | <0.005 | 0.05 (≈ 0.0439 µM) | 0.02 (≈ 0.0175 µM)
9 | CC(=O)Oc1cccc(C(=O)N(C)CCCN(CC(=O)N[C@@H](C(=O)N[C@@H]2C(=O)N3[C@@H]2SC(C)(C)[C@@H]3C(=O)O)c2ccccc2)C(=O)c2cccc(OC(C)=O)c2OC(C)=O)c1OC(C)=O [Example 9, N-[3,7-Bis-(2,3-diacetoxybenzoyl)-3,7-diaza-octanoyl]-ampicillin] | <0.005 | 0.02 (≈ 0.0218 µM) | 3.12 (≈ 3.4 µM) | 0.02 (≈ 0.0218 µM) | 0.005 (≈ 0.00545 µM) | 0.08 (≈ 0.0872 µM) | 0.05 (≈ 0.0545 µM)
10 | CC(=O)Oc1cccc(C(=O)NCCCCN(CC(=O)N[C@@H](C(=O)N[C@@H]2C(=O)N3[C@@H]2SC(C)(C)[C@@H]3C(=O)O)c2ccccc2)C(=O)c2cccc(OC(C)=O)c2OC(C)=O)c1OC(C)=O [Example 10, N-[3,8-Bis-(2,3-diacetoxybenzoyl)-3,8-diaza-octanoyl]-ampicillin] | <0.005 | <0.005 | 3.12 (≈ 3.4 µM) | <0.005 | <0.005 | 0.05 (≈ 0.0545 µM) | <0.005
11 | CC(=O)Oc1cccc(C(=O)NCCCCN(CC(=O)NC(C(=O)NC2C(=O)N3C2SC(C)(C)C3C(=O)O)c2ccc(O)cc2)C(=O)c2cccc(OC(C)=O)c2OC(C)=O)c1OC(C)=O (stereo not shown) [Example 11, N-[3,8-Bis-(2,3-diacetoxybenzoyl)-3,8-diaza-octanoyl]-amoxicillin] | <0.005 | 0.01 (≈ 0.0107 µM) | 3.12 (≈ 3.34 µM) | <0.005 | 0.01 (≈ 0.0107 µM) | 0.1 (≈ 0.107 µM) | <0.005
12 | COC(=O)Oc1cc(Cl)c(Cl)c(C(=O)N(C)CCCN(CC(=O)NC(C(=O)NC2C(=O)N3C2SC(C)(C)C3C(=O)O)c2ccccc2)C(=O)c2c(Cl)c(Cl)cc(OC(=O)OC)c2OC(=O)OC)c1OC(=O)OC (stereo not shown) [Example 12, N-{3,7-Bis-(2,3-dichlor-5,6-di-methoxycarbonyloxy-benzoyl)-3,7-diaza-octanoyl}-ampicillin] | <0.005 | 0.02 (≈ 0.0179 µM) | 3.12 (≈ 2.79 µM) | 0.05 (≈ 0.0447 µM) | 0.05 (≈ 0.0447 µM) | 0.1 (≈ 0.0893 µM) | 0.05 (≈ 0.0447 µM)
13 | CC(=O)Oc1cccc(C(=O)NCCN(CCNC(=O)c2cccc(OC(C)=O)c2OC(C)=O)CCN(CC(=O)NC(C(=O)NC2C(=O)N3C2SC(C)(C)C3C(=O)O)c2ccccc2)C(=O)c2cccc(OC(C)=O)c2OC(C)=O)c1OC(C)=O (stereo not shown) [Example 13, N-{[6-Bis-2,3-(diacetoxybenzoyl)-2-aminoethyl]-3-(2,3-diacetoxybenzoyl)-3,6-diaza-hexanoyl}-ampicillin] | 0.1 (≈ 0.0836 µM) | 0.78 (≈ 0.652 µM) | 1.56 (≈ 1.3 µM) | 0.2 (≈ 0.167 µM) | 0.1 (≈ 0.0836 µM) | 3.12 (≈ 2.61 µM) | 0.78 (≈ 0.652 µM)
14 | COC(=O)Oc1cccc(C(=O)NCC(O)CN(CC(=O)NC(C(=O)NC2C(=O)N3C2SC(C)(C)C3C(=O)O)c2ccccc2)C(=O)c2cccc(OC(=O)OC)c2OC(=O)OC)c1OC(=O)OC (stereo not shown) [Example 14, N-[3,7-Bis-(2,3-dimethoxycarbonyloxybenzoyl)-3,7-diaza-5-hydroxy-heptanoyl]-ampicillin] | 0.2 (≈ 0.203 µM) | 6.25 (≈ 6.35 µM) | 0.4 (≈ 0.407 µM) | 0.4 (≈ 0.407 µM) | 0.1 (≈ 0.102 µM) | 1.56 (≈ 1.59 µM) | 1.56 (≈ 1.59 µM)
